Activity calls are given as the source filed them. The rule behind the calls is not given here.
What was measured:
[1] = Growth inhibition of porcine primary hepatocytes after 72 hrs by SRB assay; format: cell-based, Sus scrofa, Hepatocyte; conditions: pig
HepG2 [2] = test: Growth inhibition of human HepG2 cells after 72 hrs by SRB assay; format: functional; conditions: HepG2, 72 h
HepG2 [3] = test: Induction of cell cycle arrest in human HepG2 cells assessed as decrease in DNA content at S phase at 4.1 uM after 72 hrs by propidium iodide staining-based flow cytometric analysis; format: functional
HepG2 [4] = test: Induction of cell cycle arrest in human HepG2 cells assessed as increase in DNA content at G2/M phase at 4.1 uM after 72 hrs by propidium iodide staining-based flow cytometric analysis; format: functional
HepG2 [5] = test: Induction of cell cycle arrest in human HepG2 cells assessed as increase in sub-G1 peak at 4.1 uM after 72 hrs by propidium iodide staining-based flow cytometric analysis; format: functional

Row | SMILES | GI50 (HepG2 [2]) [µM] | GI50 at 72 h [1] [µM] | Activity (HepG2 [3]) | Activity (HepG2 [4]) | Activity (HepG2 [5])
1 | COC(=O)c1sc2cc(-c3ccc(OC)nc3)cnc2c1N | > 125 | > 125 | – | – | –
2 | COC(=O)c1sc2cc(C#Cc3ccc(OC)cc3)cnc2c1N | > 125 | 76.5 | – | – | –
3 | COC(=O)c1sc2cc(-c3ccc(-c4cccs4)s3)cnc2c1N | 70.6 | 106 | – | – | –
4 | COC(=O)c1sc2cc(C#Cc3ccc(N(C)C)cc3)cnc2c1N | 67.6 | > 125 | – | – | –
5 | COC(=O)c1sc2cc(C#Cc3ccc(N)cc3)cnc2c1N | 25.9 | > 125 | – | – | –
6 | COC(=O)c1sc2cc(C#Cc3ccccn3)cnc2c1N | 75.7 | 56.9 | – | – | –
7 | COC(=O)c1sc2cc(-c3ccsc3)cnc2c1N | > 125 | 25.2 | – | – | –
8 | Cc1c2ccncc2c(C)c2c1[nH]c1ccccc12 [ELLIPTECINE] | 2.9 | 3.3 | – | – | –
9 | COC(=O)c1sc2cc(-c3cnc(OC)nc3OC)cnc2c1N | 23.8 | 4.4 | – | – | –
10 | COC(=O)c1sc2cc(-c3cccnc3)cnc2c1N | > 125 | > 125 | – | – | –
11 | COC(=O)c1sc2cc(C#Cc3cccc(OC)c3)cnc2c1N | > 125 | > 125 | – | – | –
12 | COC(=O)c1sc2cc(C#Cc3ccccc3)cnc2c1N | > 125 | 95.7 | – | – | –
13 | COC(=O)c1sc2cc(-c3ccoc3)cnc2c1N | > 125 | > 125 | – | – | –
14 | COC(=O)c1sc2cc(C#Cc3ccc(F)cc3)cnc2c1N | > 125 | > 125 | – | – | –
15 | COC(=O)c1sc2cc(C#Cc3ccccc3OC)cnc2c1N | > 125 | 121 | – | – | –
16 | COC(=O)c1sc2cc(C#Cc3cccc(N)c3)cnc2c1N | 1.2 | > 125 | Active | Active | Active
17 | COC(=O)c1sc2cc(-c3cc(OC)cc(OC)c3)cnc2c1N | 125 | 25 | – | – | –
18 | COC(=O)c1sc2cc(C#Cc3ccccc3N)cnc2c1N | > 125 | > 125 | – | – | –
19 | COC(=O)c1sc2cc(C#Cc3cccnc3)cnc2c1N | > 125 | > 125 | – | – | –
20 | COC(=O)c1sc2cc(-c3cnn(C)c3)cnc2c1N | > 125 | > 125 | – | – | –
21 | COC(=O)c1sc2cc(C#Cc3ccsc3)cnc2c1N | 30 | 30.7 | – | – | –
22 | COC(=O)c1sc2cc(C#Cc3ccccc3F)cnc2c1N | > 125 | > 125 | – | – | –

Further lines, with some results ahead:

Row | GI50 (HepG2 [2]) [µM] | SMILES | GI50 at 72 h [1] [µM] | Activity (HepG2 [3]) | Activity (HepG2 [4]) | Activity (HepG2 [5])
23 | > 125 | COC(=O)c1sc2cc(-c3ccc(OC)cc3)cnc2c1N | > 125 | – | – | –
24 | > 125 | COC(=O)c1sc2cc(-c3cnc4ccccc4c3)cnc2c1N | 32.5 | – | – | –
25 | > 125 | COC(=O)c1sc2cc(-c3ccc(C(C)=O)cc3)cnc2c1N | > 125 | – | – | –
26 | > 125 | COC(=O)c1sc2cc(-c3cncc4ccccc34)cnc2c1N | 25.4 | – | – | –
27 | > 125 | COC(=O)c1sc2cc(-c3ccc4ccccc4c3)cnc2c1N | 102 | – | – | –
28 | > 125 | COC(=O)c1sc2cc(-c3ccc(C#N)cc3)cnc2c1N | 96.7 | – | – | –
29 | > 125 | COC(=O)c1sc2cc(-c3ccc4ncccc4c3)cnc2c1N | 14.1 | – | – | –
30 | 21.7 | COC(=O)c1sc2cc(-c3ccccc3N)cnc2c1N | > 125 | – | – | –
31 | > 125 | COC(=O)c1sc2cc(-c3ccc(C(F)(F)F)cc3)cnc2c1N | > 125 | – | – | –
32 | 117 | COC(=O)c1sc2cc(-c3ccc4c(ccn4C)c3)cnc2c1N | 106 | – | – | –
33 | > 125 | COC(=O)c1sc2cc(-c3ccc(F)nc3)cnc2c1N | 47 | – | – | –
